Assays:
Assay in all cases: shift of O2 affinity (P50), thin-film O2 equilibrium curves
Conditions in all cases: allosteric effector of O2 binding; 0.5 mM DPG (twofold molar excess over tetramer) vs stripped Hb; no Cl-; 0.1 M HEPES, pH 7.2, 37 °C
[1] = target: T1, dugong Hb (HbA; α2β/δ2) (Dugong dugon, UniProt A0A481WQB0)
T1 construct: gene HBB; recombinant tetramer, E. coli JM109 (DE3) with co-expressed methionine aminopeptidase, codon-optimised, ion exchange purified; with Hemoglobin subunit alpha

[2] = target: T2, Steller's sea cow Hb (H. gigas HbA; α2β/δ2) (Hydrodamalis gigas, UniProt A0A481WR13)
T2 construct: gene HBB; recombinant tetramer, E. coli JM109 (DE3) with co-expressed methionine aminopeptidase, codon-optimised, ion exchange purified; natural β/δ82Asn; with Hemoglobin subunit alpha

[3] = target: T3, Steller's sea cow Hb (H. gigas HbA; α2β/δ2) (Hydrodamalis gigas, UniProt A0A481WR13, N83K)
T3 construct: gene HBB; recombinant tetramer, E. coli JM109 (DE3) with co-expressed methionine aminopeptidase, codon-optimised, ion exchange purified; natural β/δ82Asn; with Hemoglobin subunit alpha
T3 sequence (A0A481WNT7 entry or part of it, stated change not applied): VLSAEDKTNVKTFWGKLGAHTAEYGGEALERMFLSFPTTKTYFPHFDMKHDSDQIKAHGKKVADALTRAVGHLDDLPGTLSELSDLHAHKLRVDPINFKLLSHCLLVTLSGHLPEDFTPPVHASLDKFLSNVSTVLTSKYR
T3 sequence (A0A481WR13 entry or part of it N83K): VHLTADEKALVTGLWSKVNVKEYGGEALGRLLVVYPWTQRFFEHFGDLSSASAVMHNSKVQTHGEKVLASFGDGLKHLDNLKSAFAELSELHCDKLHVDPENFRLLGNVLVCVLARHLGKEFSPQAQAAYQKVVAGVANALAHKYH

T2 sequence (A0A481WR13 entry or part of it): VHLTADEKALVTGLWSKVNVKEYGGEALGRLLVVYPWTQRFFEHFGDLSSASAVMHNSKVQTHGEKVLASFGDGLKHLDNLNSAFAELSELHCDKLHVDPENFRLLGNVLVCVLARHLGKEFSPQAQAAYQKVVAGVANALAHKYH
T2 sequence (A0A481WNT7 entry or part of it, further chain): as the sequence (A0A481WNT7 entry or part of it, stated change not applied) above
T1 sequence (A0A481WNF4 entry or part of it): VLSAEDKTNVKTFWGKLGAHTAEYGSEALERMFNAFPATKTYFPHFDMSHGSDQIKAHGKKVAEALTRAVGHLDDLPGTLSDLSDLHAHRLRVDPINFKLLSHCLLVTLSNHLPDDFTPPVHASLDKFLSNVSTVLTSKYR
T1 sequence (A0A481WQB0 entry or part of it): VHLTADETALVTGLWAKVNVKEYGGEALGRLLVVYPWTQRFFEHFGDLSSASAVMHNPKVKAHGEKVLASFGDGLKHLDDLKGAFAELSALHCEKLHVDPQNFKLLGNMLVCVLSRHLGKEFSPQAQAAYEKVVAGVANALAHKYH

O=C(O)[C@@H](COP(=O)(O)O)OP(=O)(O)O [2,3-diphosphoglycerate]
ΔlogP50(DPG-stripped) [1]: 0.30 log units (P50 in mm Hg)
ΔlogP50(DPG-stripped) [2]: 0.02 log units (P50 in mm Hg)
ΔlogP50(DPG-stripped) [3]: reversion to the ancestral state restores the DPG effect to the same level

Source: article PMC10284601, “Evolution of an extreme hemoglobin phenotype contributed to the sub-Arctic specialization of extinct Steller’s sea cows” (eLife, 2023)
